ChEMBL document CHEMBL1148076, “Cucurbitacins: differential cytotoxicity, dereplication and first isolation from Gonystylus keithii” (1994)

What was measured:
Assay type in all cases: functional
OVCAR-3 = assay: Growth inhibition of human OVCAR-3 cells
HOP-92 = assay: Growth inhibition of human HOP92 cells
UO-31 = assay: Growth inhibition of human UO31 cells
SK-MEL-2 = assay: Growth inhibition of human SK-MEL-2 cells
NCI-H460 = assay: Growth inhibition of human NCI-H460 cells
HCC 2998 = assay: Growth inhibition of human HCC2998 cells
SK-OV-3 = assay: Growth inhibition of human SKOV3 cells
NCI-H322M = assay: Growth inhibition of human NCI-H322M cells
K562 = assay: Growth inhibition of human K562 cells
IGROV-1 = assay: Growth inhibition of human IGROV1 cells
SNB-19 = assay: Growth inhibition of human SNB19 cells
EKVX = assay: Growth inhibition of human EKVX cells
BT-549 = assay: Growth inhibition of human BT549 cells
A549 = assay: Growth inhibition of human A549 cells
TK-10 = assay: Growth inhibition of human TK10 cells
HCT-116 = assay: Growth inhibition of human HCT116 cells
HOP-62 = assay: Growth inhibition of human HOP62 cells
[1] = Growth inhibition of human […] cells
SF-268 = assay: Growth inhibition of human SF268 cells
RXF 393 = assay: Growth inhibition of human RXF393 cells
786-0 = assay: Growth inhibition of human 786-0 cells
M14 = assay: Growth inhibition of human M14 cells
T47D = assay: Growth inhibition of human T47D cells
MDA-N = assay: Growth inhibition of human MDA-N cells
ACHN = assay: Growth inhibition of human ACHN cells
Malme-3M = assay: Growth inhibition of human MALME-3M cells
NCI-H226 = assay: Growth inhibition of human NCI-H226 cells
NCI-H23 = assay: Growth inhibition of human NCI-H23 cells
[2] = Growth inhibition of human Hs 578T cells
HL-60(TB) = assay: Growth inhibition of human HL-60(TB) cells
DU-145 = assay: Growth inhibition of human DU145 cells
KM12 = assay: Growth inhibition of human KM12 cells
MDA-MB-231 = assay: Growth inhibition of human MDA-MB-231 cells
SNB-75 = assay: Growth inhibition of human SNB75 cells
U-251 = assay: Growth inhibition of human U251 cells
NCI-H522 = assay: Growth inhibition of human NCI-H522 cells
CCRF-CEM = assay: Growth inhibition of human CCRF-CEM cells
SK-MEL-28 = assay: Growth inhibition of human SK-MEL-28 cells
MOLT-4 = assay: Growth inhibition of human MOLT4 cells
LOX IMVI = assay: Growth inhibition of human LOXIMVI cells
PC-3 = assay: Growth inhibition of human PC3 cells
CAKI-1 = assay: Growth inhibition of human Caki1 cells
MDA-MB-435 = assay: Growth inhibition of human MDA-MB-435 cells
SW-620 = assay: Growth inhibition of human SW620 cells
UACC-257 = assay: Growth inhibition of human UACC257 cells
OVCAR-4 = assay: Growth inhibition of human OVCAR4 cells
SF-539 = assay: Growth inhibition of human SF539 cells
A498 = assay: Growth inhibition of human A498 cells
UACC-62 = assay: Growth inhibition of human UACC62 cells
SR = assay: Growth inhibition of human SR cells
SK-MEL-5 = assay: Growth inhibition of human SK-MEL-5 cells
SF-295 = assay: Growth inhibition of human SF295 cells
HCT-15 = assay: Growth inhibition of human HCT15 cells
HT-29 = assay: Growth inhibition of human HT-29 cells
NCI/ADR-RES = assay: Growth inhibition of human NCI/ADR-RES cells
COLO 205 = assay: Growth inhibition of human COLO205 cells
OVCAR-8 = assay: Growth inhibition of human OVCAR8 cells
SN12C = assay: Growth inhibition of human SN12C cells
MCF7 = assay: Growth inhibition of human MCF7 cells
OVCAR-5 = assay: Growth inhibition of human OVCAR5 cells
[3] = read-out: pLC50 (the source's name) (converted)

CC(=O)OC(C)(C)/C=C/C(=O)[C@](C)(O)[C@H]1[C@H](O)C[C@@]2(C)[C@@H]3CC=C4[C@@H](C=C(O)C(=O)C4(C)C)[C@]3(C)C(=O)C[C@]12C [CUCURBITACIN E]
CC50 (OVCAR-3; [3]): 3.72 µM
TGI (OVCAR-3; read-out: pTGI (converted)): 0.0832 µM
CC50 (HOP-92; [3]): 0.191 µM
TGI (HOP-92; read-out: pTGI (converted)): 0.0631 µM
CC50 (UO-31; [3]): 2.29 µM
TGI (UO-31; read-out: pTGI (converted)): 0.0776 µM
CC50 (SK-MEL-2; [3]): 0.417 µM
TGI (SK-MEL-2; read-out: pTGI (converted)): 0.0257 µM
CC50 (NCI-H460; [3]): 19.1 µM
TGI (NCI-H460; read-out: pTGI (converted)): 2.19 µM
CC50 (HCC 2998; [3]): 10 µM
TGI (HCC 2998; read-out: pTGI (converted)): 0.912 µM
CC50 (SK-OV-3; [3]): 12 µM
TGI (SK-OV-3; read-out: pTGI (converted)): 0.55 µM
CC50 (NCI-H322M; [3]): 12 µM
TGI (NCI-H322M; read-out: pTGI (converted)): 3.02 µM
CC50 (K562; [3]): 32.4 µM
TGI (K562; read-out: pTGI (converted)): 15.1 µM
CC50 (IGROV-1; [3]): 3.89 µM
TGI (IGROV-1; read-out: pTGI (converted)): 0.0199 µM
CC50 (SNB-19; [3]): 1.51 µM
TGI (SNB-19; read-out: pTGI (converted)): 0.209 µM
CC50 (EKVX; [3]): 15.8 µM
TGI (EKVX; read-out: pTGI (converted)): 1.1 µM
CC50 (BT-549; [3]): 0.151 µM
TGI (BT-549; read-out: pTGI (converted)): 0.0129 µM
CC50 (A549; [3]): 33.9 µM
TGI (A549; read-out: pTGI (converted)): 5.01 µM
CC50 (TK-10; [3]): 3.31 µM
TGI (TK-10; read-out: pTGI (converted)): 0.129 µM
CC50 (HCT-116; [3]): 1.82 µM
TGI (HCT-116; read-out: pTGI (converted)): 0.372 µM
CC50 (HOP-62; [3]): 6.92 µM
TGI (HOP-62; read-out: pTGI (converted)): 0.309 µM
CC50 [1, 3]: 34.7 µM
TGI ([1]; read-out: pTGI (converted)): 8.13 µM
CC50 (SF-268; [3]): 12.9 µM
TGI (SF-268; read-out: pTGI (converted)): 0.1 µM
CC50 (RXF 393; [3]): 0.347 µM
TGI (RXF 393; read-out: pTGI (converted)): 0.049 µM
CC50 (786-0; [3]): 4.07 µM
TGI (786-0; read-out: pTGI (converted)): 0.129 µM
CC50 (M14; [3]): 6.76 µM
TGI (M14; read-out: pTGI (converted)): 0.646 µM
CC50 (T47D; [3]): 12.9 µM
TGI (T47D; read-out: pTGI (converted)): 2 µM
CC50 (MDA-N; [3]): 14.1 µM
TGI (MDA-N; read-out: pTGI (converted)): 1.91 µM
CC50 (ACHN; [3]): 2.51 µM
TGI (ACHN; read-out: pTGI (converted)): 0.141 µM
CC50 (Malme-3M; [3]): 4.37 µM
TGI (Malme-3M; read-out: pTGI (converted)): 0.0794 µM
CC50 (NCI-H226; [3]): 9.77 µM
TGI (NCI-H226; read-out: pTGI (converted)): 0.0912 µM
CC50 (NCI-H23; [3]): 10 µM
TGI (NCI-H23; read-out: pTGI (converted)): 2.19 µM
CC50 [2, 3]: 34.7 µM
TGI ([2]; read-out: pTGI (converted)): 0.0891 µM
CC50 (HL-60(TB); [3]): 34.7 µM
TGI (HL-60(TB); read-out: pTGI (converted)): 6.61 µM
CC50 (DU-145; [3]): 12.9 µM
TGI (DU-145; read-out: pTGI (converted)): 2.09 µM
CC50 (KM12; [3]): 15.1 µM
TGI (KM12; read-out: pTGI (converted)): 4.79 µM
CC50 (MDA-MB-231; [3]): 0.891 µM
TGI (MDA-MB-231; read-out: pTGI (converted)): 0.0537 µM
CC50 (SNB-75; [3]): 17 µM
TGI (SNB-75; read-out: pTGI (converted)): 0.603 µM
CC50 (U-251; [3]): 3.47 µM
TGI (U-251; read-out: pTGI (converted)): 0.646 µM
CC50 (NCI-H522; [3]): 3.31 µM
TGI (NCI-H522; read-out: pTGI (converted)): 0.0813 µM
CC50 (CCRF-CEM; [3]): 34.7 µM
TGI (CCRF-CEM; read-out: pTGI (converted)): 6.31 µM
CC50 (SK-MEL-28; [3]): 4.17 µM
TGI (SK-MEL-28; read-out: pTGI (converted)): 0.0776 µM
CC50 (MOLT-4; [3]): 34.7 µM
TGI (MOLT-4; read-out: pTGI (converted)): 15.1 µM
CC50 (LOX IMVI; [3]): 0.0537 µM
TGI (LOX IMVI; read-out: pTGI (converted)): 0.0191 µM
CC50 (PC-3; [3]): 6.76 µM
TGI (PC-3; read-out: pTGI (converted)): 0.257 µM
CC50 (CAKI-1; [3]): 0.0794 µM
TGI (CAKI-1; read-out: pTGI (converted)): 0.0209 µM
CC50 (MDA-MB-435; [3]): 22.9 µM
TGI (MDA-MB-435; read-out: pTGI (converted)): 2.09 µM
CC50 (SW-620; [3]): 19.1 µM
TGI (SW-620; read-out: pTGI (converted)): 2.09 µM
CC50 (UACC-257; [3]): 11 µM
TGI (UACC-257; read-out: pTGI (converted)): 1.2 µM
CC50 (OVCAR-4; [3]): 10 µM
TGI (OVCAR-4; read-out: pTGI (converted)): 0.417 µM
CC50 (SF-539; [3]): 0.331 µM
TGI (SF-539; read-out: pTGI (converted)): 0.0182 µM
CC50 (A498; [3]): 0.0631 µM
TGI (A498; read-out: pTGI (converted)): 0.0257 µM
CC50 (UACC-62; [3]): 1.91 µM
TGI (UACC-62; read-out: pTGI (converted)): 0.347 µM
CC50 (SR; [3]): 34.7 µM
TGI (SR; read-out: pTGI (converted)): 14.1 µM
CC50 (SK-MEL-5; [3]): 0.759 µM
TGI (SK-MEL-5; read-out: pTGI (converted)): 0.12 µM
CC50 (SF-295; [3]): 5.62 µM
TGI (SF-295; read-out: pTGI (converted)): 0.0813 µM
CC50 (HCT-15; [3]): 11 µM
TGI (HCT-15; read-out: pTGI (converted)): 0.537 µM
CC50 (HT-29; [3]): 10 µM
TGI (HT-29; read-out: pTGI (converted)): 1.82 µM
CC50 (NCI/ADR-RES; [3]): 33.9 µM
TGI (NCI/ADR-RES; read-out: pTGI (converted)): 8.13 µM
CC50 (COLO 205; [3]): 17 µM
TGI (COLO 205; read-out: pTGI (converted)): 5.75 µM
CC50 (OVCAR-8; [3]): 15.1 µM
TGI (OVCAR-8; read-out: pTGI (converted)): 2.29 µM
CC50 (SN12C; [3]): 12.9 µM
TGI (SN12C; read-out: pTGI (converted)): 1.41 µM
CC50 (MCF7; [3]): 8.91 µM
TGI (MCF7; read-out: pTGI (converted)): 3.24 µM
CC50 (OVCAR-5; [3]): 18.2 µM
TGI (OVCAR-5; read-out: pTGI): 5.25 µM
